This is an account of results in patent US20060127423A1, “Organic compounds” (priority 1998, published 2006).

In brackets after ≈: the same amount, converted by molar mass. A value given as a limit tells only on which side of the number the result lay.

Data set [1] can be described thus: Stability of PEG-containing infusion concentrates: degradation products by HPLC. It counts as physicochemical. The following applies: ethanol/water 59:41 (w/w), 5 mg/ml, 2-8° C.
The nature of data set [2]: Solubility of epothilone B in various solvent systems. It counts as physicochemical. How it is done:
If not indicated otherwise all solubility data refer to T=22° C.

A short description of data set [3]: Stability of PEG-containing infusion concentrates: degradation products by HPLC. It counts as physicochemical. Here is the method:
The stability of aqueous versus nonaqueous polyethyleneglycol infusion concentrates comprising epothilone B at different concentration and various temperatures is determined. Typically, a known amount of epothilone B is dissolved in 1.0 ml of each of the various solvent systems and each solution is sterile filtered and charged to 1 ml white-glass vials with grey rubber stoppers and grey flip-off caps. The stability is analyzed by determining formation of degradation products in each of the infusion concentrates as a function of time and temperature. Each sample is analyzed by HPLC, the sample is prepared by diluting the concentrate with an aqueous medium.

For data set [4] the following is noted: previously reported; cited from earlier work.

For orientation: Solubility means the dissolved amount per volume that the medium holds. As to `C/C(=C\c1csc(C)n1)[C@@H]1C[C@@H]2O[C@]2(C)CCC[C@H](C)[C@H](O)[C@@H](C)C(=O)C(C)(C)[C@@H](O)CC(=O)O1` [epothilone B], the “Proportion of degradation products” value is 0.3 in data set [1] (1 month); 0.3 in data set [1] (5 months); below 0.1 in data set [1] (initial); below 0.1 in data set [3] (PEG 300, 1 mg/ml, 3 months, 2-8° C.); below 0.1 in data set [3] (PEG 300/water 90:10 (w/w), 15 mg/ml, 7 months, 2-8° C.); 1.0 in data set [3] (PEG 300/water 90:10 (w/w), 15 mg/ml, 7 months, 25° C.). Also, the “Proportion of degradation products” value is below 0.1 in data set [3] (PEG 400, 1 mg/ml, 3 months, 2-8° C.); 0.2 in data set [3] (PEG 400, 1 mg/ml, 3 months, 25° C.); below 0.1 in data set [3] (PEG 400/water 90:10 (w/w), 1 mg/ml, 3 months, 2-8° C.); 0.4 in data set [3] (PEG 400/water 90:10 (w/w), 1 mg/ml, 3 months, 25° C.). Besides, the Solubility in data set [2] (EtOH/H2O (v/v) 10/90, T=22° C.) was 1.1 g/L (≈ 2170 µM); in data set [2] (EtOH/H2O (v/v) 20/80, T=22° C.), 1.3 g/L (≈ 2560 µM); in data set [2] (EtOH/H2O (v/v) 30/70, T=22° C.), 4.1 g/L (≈ 8080 µM); in data set [2] (EtOH/H2O (v/v) 50/50, T=22° C.) it was 27 g/L (≈ 53200 µM); in data set [2] (EtOH/H2O (v/v) 100/0, T=22° C.), above 50 g/L; in data set [2] (H2O (pH 6.0), 4° C.) it was 0.19 g/L (≈ 374 µM). Also, the Solubility in data set [2] (H2O (pH 6.0), T=22° C.) is 0.16 g/L (≈ 315 µM); in data set [2] (H2O, 0.9% glucose, T=22° C.), 0.16 g/L (≈ 315 µM); in data set [2] (H2O, 5% glucose, T=22° C.), 0.16 g/L (≈ 315 µM); in data set [2] (H2O, 5% poloxamer 188, T=22° C.), 0.23 g/L (≈ 453 µM); in data set [2] (H2O, 15% glycerin, T=22° C.) it was 0.19 g/L (≈ 374 µM); in data set [2] (PEG 300/H2O (v/v) 30/70, T=22° C.), 0.9 g/L (≈ 1770 µM). Also, the Solubility was determined as 10 g/L (≈ 19700 µM) in data set [2] (PEG 300/H2O (v/v) 50/50, T=22° C.); 2.5 g/L (≈ 4920 µM) in data set [2] (PEG 300/H2O (v/v) 70/30, T=22° C.); 12 g/L (≈ 23600 µM) in data set [2] (PEG 300/H2O (v/v) 100/0, T=22° C.); 0.8 g/L (≈ 1580 µM) in data set [2] (PEG 400/H2O (v/v) 30/70, T=22° C.); 11 g/L (≈ 21700 µM) in data set [2] (PEG 400/H2O (v/v) 50/50, T=22° C.); 2.3 g/L (≈ 4530 µM) in data set [2] (PEG 400/H2O (v/v) 70/30, T=22° C.). Further, the Solubility in data set [2] (PEG 400/H2O (v/v) 100/0, T=22° C.) is 30 g/L (≈ 59100 µM); in data set [2] (Phosphate buffer pH 7.4, 4° C.) it was 0.19 g/L (≈ 374 µM); in data set [2] (Phosphate buffer pH 7.4, T=22° C.), 0.16 g/L (≈ 315 µM); in data set [2] (Propylene glycol/H2O (v/v) 30/70, T=22° C.), 0.6 g/L (≈ 1180 µM); in data set [2] (Propylene glycol/H2O (v/v) 50/50, T=22° C.) it was 1.6 g/L (≈ 3150 µM); in data set [2] (Propylene glycol/H2O (v/v) 70/30, T=22° C.) it was 10.4 g/L (≈ 20500 µM). In data set [2] (Propylene glycol/H2O (v/v) 100/0, T=22° C.), the Solubility came out at 26 g/L (≈ 51200 µM). For the same compound, the “Solubility relative to water” value in data set [2] (PEG/water, propyleneglycol/water, or EtOH/water mixtures) is given as “significantly higher solubility”. In addition, the Solubility in water result in data set [2] (water at neutral pH) is listed as “about 160 mg/l”.
In general, Aqueous solubility refers to how much of the substance goes into solution per volume. As for `C/C(=C\c1csc(C)n1)[C@@H]1C[C@@H]2O[C@@H]2CCC[C@H](C)[C@H](O)[C@@H](C)C(=O)C(C)(C)[C@@H](O)CC(=O)O1` [epothilone A], the Aqueous solubility in data set [4] was 940 mg/L.
